Results as given in patent US9012500B2, “PKC-ε activator” (Nishizaki Bioinformation Research Institute, priority 2010, dated 2015).

Biological target: T1, PKC-ε (Rattus norvegicus, UniProt P09216)
T1 construct: PC-12 cells were transfected with PKC-ε siRNA or NC siRNA; endogenous in cells; host or cells: rat PC-12 cells
T1 sequence (P09216 1-737): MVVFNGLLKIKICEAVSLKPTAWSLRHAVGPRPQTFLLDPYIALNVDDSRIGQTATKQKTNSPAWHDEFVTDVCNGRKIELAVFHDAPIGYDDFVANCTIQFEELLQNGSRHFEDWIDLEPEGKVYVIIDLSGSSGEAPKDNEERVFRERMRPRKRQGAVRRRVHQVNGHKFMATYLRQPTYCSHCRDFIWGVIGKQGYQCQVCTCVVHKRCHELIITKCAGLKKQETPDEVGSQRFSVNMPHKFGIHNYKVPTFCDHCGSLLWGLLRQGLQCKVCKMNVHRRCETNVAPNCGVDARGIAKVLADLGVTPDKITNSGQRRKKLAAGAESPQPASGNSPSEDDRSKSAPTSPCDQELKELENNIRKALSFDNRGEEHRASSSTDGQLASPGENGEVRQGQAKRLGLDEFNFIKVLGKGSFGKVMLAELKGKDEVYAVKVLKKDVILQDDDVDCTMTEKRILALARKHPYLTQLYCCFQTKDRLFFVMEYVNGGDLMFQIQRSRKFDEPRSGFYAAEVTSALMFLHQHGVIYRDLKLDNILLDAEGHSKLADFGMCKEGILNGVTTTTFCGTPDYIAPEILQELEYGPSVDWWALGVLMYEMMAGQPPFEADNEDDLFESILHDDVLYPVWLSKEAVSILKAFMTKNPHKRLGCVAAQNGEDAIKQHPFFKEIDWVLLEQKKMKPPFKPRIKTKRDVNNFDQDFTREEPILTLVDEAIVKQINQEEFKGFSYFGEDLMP
Assay: Intracellular PKC assay after knockdown of PKC-ε (siRNA) in PC-12 cells
Type: cell-based
Settings: PKC-ε siRNA vs NC siRNA, FIG. 3
Procedure: According to the method described in a publication [Kanno T et al., J Lipid Res 47 (6):1146-1156, 2006], the PKC activity of rat PC-12 cells was assayed. The cells were treated with each DCP-LA optical isomer at 37° C. for 10 min. The treatment was performed in an extracellular solution [137 mM NaCl, 5.4 mM KCl, 10 mM MgCl2, 5 mM ethyleneglycol-bis(2-aminoethylether)-N,N,N′,N′-tetraacetic acid (EGTA), 0.3 mM Na2HPO4, 0.4 mM K2HPO4 and 20 mM 4-(2-hydroxyethyl)-1-piperazin-ethanesulfonic acid, pH 7.2]. Then, the cells were rinsed with 100 μl of phosphate-buffered saline (PBS) in the absence of Ca^2+, and incubated in an extracellular solution (50 μl) containing 50 μg/ml digitonin, 25 mM glycerol 2-phosphate, 200 μM ATP and 100 μM synthetic PKC substrate peptide (Pyr-Lys-Arg-Pro-Ser-Gln-Arg-Ser-Lys-Tyr-Leu (SEQ ID NO: 1); MW, 1,374; Pyr: […]) at 37° C. for 15 min. […] A substrate peptide peak and a new resultant product peak were detected at the absorbance of 214 nm (SPD-10Avp UV-VIS detector, Shimadzu Co., Kyoto, Japan). […] The molecular weight was calculated from the two standard spectra of bradykinin (MW 1060.2) and substance P (MW 1672.9).
The areas of the non-phosphorylated and phosphorylated substrate peptides were measured (total area corresponds to the concentration of PKC substrate peptide used). […]

Compound: CCCCC[C@@H]1C[C@@H]1C[C@@H]1C[C@H]1CCCCCCCC(=O)O [α,β-DCP-LA, 8-[(1R,2S)-2-{(1R,2R)-2-pentylcyclopropylmethyl}-cyclopropyl]octanoic acid]
- PKC activation induced by the compound after knocking down PKC-ε: inhibited by knocking down PKC-ε
